Measurements reported in patent US11192921B2 (priority 2017, dated 2021).
Several values for one entry are separate records, joined by “and”; a condition that tells them apart may be missing. Equal entries are not always repeated. Where two headings read alike, the source gives them in different places. Marks after values point to notes of the source that are not given here. No end group written: not given here.

Assays:
Female Kunming mice [1] = format: in vivo
Kunming mice [2] = format: in vivo
Kunming mice [3] = conditions: mouse, in vivo
male BALB/c mice = test: cancer-induced pain (CIP) model, thermosensitive test; format: in vivo; conditions: heat radiation stimulation
Protocol: Influence of Analgesic Polypeptides on Neuralgia in a Cancer-Induced Pain (CIP) Model
A number of male BALB/c mice each weighing 25-30 g were used.
Von Fery monofilament; a microsyringe, 5 mg/mL solutions of polypeptides I, II and II I; normal saline.
BALB/c mice were taken, and the right sciatic nerve was exposed; ascites containing 5×10^4 Meth A sarcoma cells were injected into the proximal nerve near the sciatic nerve trochanter far from the tendon branch of the posterior biceps, the wound was closed, and the same volume of normal saline was injected into the left side by performing a sham operation.
1.3.1 Thermosensitive Test
On the 4th, 7th, 10th and 14th days after inoculation, the latency of foot lifting caused by heat radiation stimulation to animals was observed, and the heat radiation intensity was adjusted to cause the latency of foot lifting of normal mice to be (10±2) s.
All data was expressed as M±SD and subjected to one-way ANOVA.

SD rats = test: pain threshold of trigeminal nerve (trigeminal neuralgia model); format: in vivo; conditions: for highest pain threshold on the operative side / pain threshold on the opposite side: 3 h after injection; for Pain threshold: intraperitoneal
Female Kunming mice [4] = system: Female Kunming mice
Female Kunming mice [5] = system: Female Kunming mice; remark: listed apart in the source
Female Kunming mice [6] = system: Female Kunming mice; remark: listed apart in the source
[7] = 50 μg/kg, injected subcutaneously
[8] = 100 μg/kg, injected subcutaneously

## KCSTPPDAVLYC (cysteine pairing not given here) [Polypeptide III, one pair of disulfide bonds formed between the two cysteines]
Female Kunming mice [1]; 0 min
  Pain threshold: 29.22 ± 0.11 s
Female Kunming mice [1]; mouse, in vivo, ip
  Pain threshold: 31.22 ± 0.42^∧∧ s and 33.12 ± 0.32*^∧ s and 27.23 ± 0.42^∧ s and 21.49 ± 0.45^∧ s and 32.14 ± 0.42 s and 21.43 ± 0.24 s
  heat thresholds of mice compared with the normal saline negative control group: effectively increase the heat thresholds of mice
Kunming mice [2]; 0 min
  Pain threshold (tail flick): 2.31 ± 0.22 s
Kunming mice [2]; 15 min
  Pain threshold (tail flick): 2.22 ± 0.21^∧∧ s
Kunming mice [2]; 30 min
  Pain threshold (tail flick): 2.32 ± 0.12 s
Kunming mice [2]; 45 min
  Pain threshold (tail flick): 4.12 ± 0.12^∧ s
Kunming mice [2]; 60 min
  Pain threshold (tail flick): 2.12 ± 0.21 s
Kunming mice [2]; 75 min
  Pain threshold (tail flick): 2.14 ± 0.12 s
Kunming mice [2]; 90 min
  Pain threshold (tail flick): 3.12 ± 0.14 s
Kunming mice [2]; mouse, in vivo
  difference from the normal saline group during a time period (**P<0.01): significantly different from the normal saline group
Kunming mice [3]
  analgesic effects in formalin-induced pain experiments: good analgesic effects
  cumulative foot licking time, Phase I: 47.19 ± 10.21*^
  cumulative foot licking time, Phase II: 41.23 ± 13.21
Male BALB/c mice; before administration
  Latency of foot lifting before administration: 9.77 ± 1.21
Male BALB/c mice; day 4
  Latency (D) of foot lifting after administration: 9.45 ± 1.02
Male BALB/c mice; day 7
  Latency (D) of foot lifting after administration: 8.88 ± 0.86
Male BALB/c mice; day 10
  Latency (D) of foot lifting after administration: 8.26 ± 1.21
Male BALB/c mice; day 14
  Latency (D) of foot lifting after administration: 6.78 ± 1.22
SD rats; 50 μg/kg and 100 μg/kg, injected subcutaneously
  animal reaction thresholds: significantly increased
SD rats; [7]
  time the pain thresholds lasted: 1 h
  highest pain threshold on the operative side: 2.3 ± 0.5 g
  pain threshold on the opposite side: 1.2 ± 0.2 g
SD rats; [8]
  time the effect on the operative side lasted: about 8 h
  highest pain threshold on the operative side: 7.4 ± 0.9 g
  pain threshold on the opposite side: 3.2 ± 1.3 g
SD rats; 300 μg/kg, subcutaneously
  pain threshold change: not significantly increased
SD rats; Dose 50 (μg/kg), 0 h
  Pain threshold: 25.98 ± 0.11 s
SD rats; Dose 50 (μg/kg), 1 h
  Pain threshold: 26.25 ± 0.46 s
SD rats; Dose 50 (μg/kg), 2 h
  Pain threshold: 26.69 ± 0.62 s
SD rats; Dose 50 (μg/kg), 3 h
  Pain threshold: 26.91 ± 0.49 s
SD rats; Dose 50 (μg/kg), 4 h
  Pain threshold: 27.91 ± 0.26 s
SD rats; Dose 50 (μg/kg), 5 h
  Pain threshold: 26.91 ± 0.61 s
SD rats; Dose 100 (μg/kg), 0 h
  Pain threshold: 26.56 ± 0.23 s
SD rats; Dose 100 (μg/kg), 1 h
  Pain threshold: 27.65 ± 0.61 s
SD rats; Dose 100 (μg/kg), 2 h
  Pain threshold: 28.16 ± 0.59 s
SD rats; Dose 100 (μg/kg), 3 h
  Pain threshold: 27.19 ± 0.91 s
SD rats; Dose 100 (μg/kg), 4 h
  Pain threshold: 28.16 ± 0.61 s
SD rats; Dose 100 (μg/kg), 5 h
  Pain threshold: 26.16 ± 0.91 s
SD rats; Dose 300 (μg/kg), 0 h
  Pain threshold: 26.15 ± 0.65 s
SD rats; Dose 300 (μg/kg), 1 h
  Pain threshold: 31.95 ± 0.56 s
SD rats; Dose 300 (μg/kg), 2 h
  Pain threshold: 30.21 ± 0.64 s
SD rats; Dose 300 (μg/kg), 3 h
  Pain threshold: 29.91 ± 0.61 s
SD rats; Dose 300 (μg/kg), 4 h
  Pain threshold: 28.85 ± 0.41 s
SD rats; Dose 300 (μg/kg), 5 h
  Pain threshold: 27.92 ± 0.61 s
Female Kunming mice [4]; 1 h
  Movement distances of mice in open field tests: 18.27 ± 1.22^
  Movement distances of mice in the center area in open field tests: 18.57 ± 1.22^
  Movement distances of mice in the peripheral area in open field tests: 19.47 ± 1.32^
  Number of entrances to the center area in open field tests: 18.47 ± 0.32^
  Number of entrances to the peripheral area in open field tests: 18.57 ± 1.42^
  Residence time in the center area in open field tests: 18.37 ± 1.22^ s
  Residence time in the peripheral area in open field tests: 14.27 ± 1.34^ s
Female Kunming mice [4]; 24 h
  Movement distances of mice in open field tests: 19.13 ± 2.38 m
  Movement distances of mice in the center area in open field tests: 18.13 ±1.38 m
  Movement distances of mice in the peripheral area in open field tests: 19.03 ± 2.48 m
  Number of entrances to the center area in open field tests: 18.23 ± 1.48
  Number of entrances to the peripheral area in open field tests: 17.13 ± 2.18
  Residence time in the center area in open field tests: 18.13 ± 1.38 s
  Residence time in the peripheral area in open field tests: 18.13 ± 1.45 s
Female Kunming mice [4]; Time 0
  Movement distances of mice in open field tests: 21.28 ± 1.28 m
  Movement distances of mice in the center area in open field tests: 21.88 ±1.18 m
  Movement distances of mice in the peripheral area in open field tests: 20.98 ± 1.28 m
  Number of entrances to the center area in open field tests: 21.28 ± 1.28
  Number of entrances to the peripheral area in open field tests: 21.28 ± 1.38
  Residence time in the center area in open field tests: 21.78 ± 1.17 s
  Residence time in the peripheral area in open field tests: 21.88 ± 1.38 s
Female Kunming mice [4]; mouse, in vivo, ip
  side effects compared with conotoxin (open field): lower side effects
  various indexes in open field experiments compared with the normal saline group: no significant difference
Female Kunming mice [5]; 1 h
  Movement duration of mice in forced swimming tests: 18.57 ± 1.21^ s
Female Kunming mice [5]; 24 h
  Movement duration of mice in forced swimming tests: 17.13 ± 1.23 s
Female Kunming mice [5]; Time 0
  Movement duration of mice in forced swimming tests: 21.40 ± 1.38 s
Female Kunming mice [5]; mouse, in vivo, ip
  toxic side effects compared with the conotoxin (forced swimming): lower toxic side effects
Female Kunming mice [6]; 1 h
  Duration of the immobility of mice in tail suspension tests: 20.12 ± 1.28 s
Female Kunming mice [6]; 24 h
  Duration of the immobility of mice in tail suspension tests: 19.23 ± 1.84 s
Female Kunming mice [6]; Time 0
  Duration of the immobility of mice in tail suspension tests: 19.28 ± 1.02 s
Female Kunming mice [6]; mouse, in vivo, ip
  data of tail suspension test compared with the normal saline group: no significant difference
  toxic side effects compared with the conotoxin (tail suspension): lower toxic side effects
